Experiments:
[1] = system: Septoria nodorum; test: Biological test on isolated fungi in culture medium, 96-well microplates (Example B2); format: cell-based; conditions: Parastagonospora nodorum, 120 h; dose of 50 ppm; culturing 5 days at 20° C.; optical density at 620 nm or 405 nm; read-out: inhibition of Septoria nodorum (percentage of inhibition of the growth, Abbott's formula)
Protocol: (§1) The test is carried out on isolated fungi in a culture medium, in 96-well microplates. The products are dissolved in acetonitrile and are then diluted to 1/50th in methanol, so as to distribute 50 μl for a dose of 50 ppm in each well. Once the compounds are distributed, the microplates are dried under a stream of nitrogen at 40° C. The culture medium and the inoculum are subsequently added.
(§2) The growth of the fungi is measured after culturing for 5 days at 20° C. by reading the optical density at 620 nm or 405 nm, depending on the strains. The effectiveness of the product is the percentage of inhibition of the growth of the fungi calculated according to Abbott's formula, the absorbance of the growth control wells and the absorbance of the treated wells being taken as reference values.
At a dose of 50 ppm, complete or good (at least 70%) inhibition of Septoria nodorum is observed with the compounds described in the following examples: 5, 28, 29, 30, 32, 33, 34, 40, 55, 57, 63, 65, 67, 68, 70, 72, 82 and 86.

[2] = system: Botrytis cinerea; test: Biological test on isolated fungi in culture medium, 96-well microplates (Example B1); format: cell-based; conditions: 120 h, dose of 50 ppm, culturing 5 days at 20° C., optical density at 620 nm or 405 nm, read-out: inhibition of Botrytis cinerea (percentage of inhibition of the growth, Abbott's formula)
Protocol: as §1, §2
At a dose of 50 ppm, complete or good (at least 70%) inhibition of Botrytis cinerea is observed with the compounds described in the following examples: 28, 32, 47, 65, 68 and 70.

[3] = system: Monilia fructigena; test: Biological test on isolated fungi in culture medium, 96-well microplates (Example B3); format: cell-based; conditions: 120 h, dose of 50 ppm, culturing 5 days at 20° C., optical density at 620 nm or 405 nm, read-out: inhibition of Monilia fructigena (percentage of inhibition of the growth, Abbott's formula)
Protocol: as §1, §2
At a dose of 50 ppm, complete or good (at least 70%) inhibition of Monilia fructigena is observed with the compounds described in the following examples: 28, 32 and 70.

[4] = system: Magnaporthe orysae; test: tissue or blood; format: cell-based; conditions: 120 h, read-out: inhibition of Magnaporthe orysae (percentage of inhibition of the growth, Abbott's formula)
[5] = system: Rhizoctonia solani; test: Biological test on isolated fungi in culture medium, 96-well microplates (Example B6); format: cell-based; conditions: 120 h, dose of 50 ppm, culturing 5 days at 20° C., optical density at 620 nm or 405 nm, read-out: inhibition of Rhizoctonia solani (percentage of inhibition of the growth, Abbott's formula)
Protocol: as §1, §2
At a dose of 50 ppm, complete or good (at least 70%) inhibition of Rhizoctonia solani is observed with the compounds described in the following examples: 28, 32, 55, 68 and 70.

[6] = system: Mycosphaerella graminacola; test: Biological test on isolated fungi in culture medium, 96-well microplates (Example B7); format: cell-based; conditions: 120 h, dose of 50 ppm, culturing 5 days at 20° C., optical density at 620 nm or 405 nm, read-out: inhibition of Mycosphaerella graminacola (percentage of inhibition of the growth, Abbott's formula)
Protocol: as §1, §2
At a dose of 50 ppm, complete or good (at least 70%) inhibition of Mycosphaerella graminacola is observed with the compounds described in the following examples: 28, 32, 55 and 70.

[7] = system: Venturia pirina; test: Biological test on isolated fungi in culture medium, 96-well microplates (Example B8); format: cell-based; conditions: Venturia pyrina, 120 h; dose of 50 ppm; culturing 5 days at 20° C.; optical density at 620 nm or 405 nm; read-out: inhibition of Venturia pirina (percentage of inhibition of the growth, Abbott's formula)
Protocol: as §1, §2
At a dose of 50 ppm, complete or good (at least 70%) inhibition of Venturia pirina is observed with the compounds described in the following example: 28.

SMILES | inhibition at 50 ppm [1] | melting point | other results
COC(=O)c1ccc2c(c1)CCC(=CCl)CO2 [Example 5, methyl 3-(chloromethylene)-2,3,4,5-tetrahydro-1-benzoxepin-7-carboxylate] | ≥ 70% | – | –
C=C1COc2ccc(C(=O)OC)cc2C(Cc2ccccc2)(S(=O)(=O)c2ccccc2)C1 (stereo not shown) [Example 6, methyl 5-benzyl-3-methylene-5-(phenylsulfonyl)-2,3,4,5-tetrahydro-1-benzoxepin-7-carboxylate] | – | 164 to 165 °C | –
C=C1COc2ccc(C(C)=O)cc2C(S(=O)(=O)c2ccccc2)C1 (stereo not shown) [Example 13, 1-[3-methylene-5-(phenylsulfonyl)-2,3,4,5-tetrahydro-1-benzoxepin-7-yl]ethanone] | – | 124 to 125 °C | –
CC(=O)c1ccc2c(c1)CCC(=O)CO2 [Example 16, 7-acetyl-4,5-dihydro-1-benzoxepin-3(2H)-one] | – | 80 to 82 °C | –
C=C1COc2ccc(C(C)=O)cc2C(Cc2ccccc2)(S(=O)(=O)c2ccccc2)C1 (stereo not shown) [Example 18, 1-[5-benzyl-3-methylene-5-(phenylsulfonyl)-2,3,4,5-tetrahydro-1-benzoxepin-7-yl]ethanone] | – | 131 to 132 °C | –
CC(=O)c1ccc2c(c1)C=CC(=CCl)CO2 [Example 28, 1-[3-(chloromethylene)-2,3-dihydro-1-benzoxepin-7-yl]ethanone] | ≥ 70% | – | inhibition at 50 ppm [2]: ≥ 70%; inhibition at 50 ppm [3]: ≥ 70%; inhibition at 50 ppm [4]: ≥ 70%; inhibition at 50 ppm [5]: ≥ 70%; inhibition at 50 ppm [6]: ≥ 70%; inhibition at 50 ppm [7]: ≥ 70%
CC(=O)c1ccc2c(c1)C(Cc1ccccc1)=CC(=O)CO2 [Example 29, 7-acetyl-5-benzyl-1-benzoxepin-3(2H)-one] | ≥ 70% | – | –
CC(=O)c1ccc2c(c1)C(Cc1ccccc1)=CC(=CCl)CO2 [Example 30, 1-[5-benzyl-3-(chloromethylene)-2,3-dihydro-1-benzoxepin-7-yl]ethanone] | ≥ 70% | – | –
COC(=O)c1ccc2c(c1)C=CC(=O)CO2 [Example 31, methyl 3-oxo-2,3-dihydro-1-benzoxepin-7-carboxylate] | – | 98 °C | –
COC(=O)c1ccc2c(c1)C=CC(=CCl)CO2 [Example 32, methyl 3-(chloromethylene)-2,3-dihydro-1-benzoxepin-7-carboxylate] | ≥ 70% | 72 to 77 °C | inhibition at 50 ppm [2]: ≥ 70%; inhibition at 50 ppm [3]: ≥ 70%; inhibition at 50 ppm [4]: ≥ 70%; inhibition at 50 ppm [5]: ≥ 70%; inhibition at 50 ppm [6]: ≥ 70%
COC(=O)c1ccc2c(c1)C(Cc1ccccc1)=CC(=O)CO2 [Example 33, methyl 5-benzyl-3-oxo-2,3-dihydro-1-benzoxepin-7-carboxylate] | ≥ 70% | – | –
COC(=O)c1ccc2c(c1)C(Cc1ccccc1)=CC(=CCl)CO2 [Example 34, methyl 5-benzyl-3-(chloromethylene)-2,3-dihydro-1-benzoxepin-7-carboxylate] | ≥ 70% | – | –
C=C1C=Cc2cc(C(=O)O)ccc2OC1 [Example 40, 3-methylene-2,3-dihydro-1-benzoxepin-7-carboxylic acid] | ≥ 70% | 188 °C | –
C=C1C=Cc2cc(C(=O)Nc3ccccc3)ccc2OC1 [Example 41, 3-methylene-N-phenyl-2,3-dihydro-1-benzoxepin-7-carboxamide] | – | 139 °C | –
COC(=O)c1ccc2c(c1)C=CC(=C(Cl)Cl)CO2 [Example 54, methyl 3-(dichloromethylene)-2,3-dihydro-1-benzoxepin-7-carboxylate] | – | 119 to 121 °C | –
O=C(O)c1ccc2c(c1)C=CC(=CCl)CO2 [Example 63, 3-(chloromethylene)-2,3-dihydro-1-benzoxepin-7-carboxylic acid] | ≥ 70% | > 260 °C | –
O=Cc1ccc2c(c1)C=CC(=CCl)CO2 [Example 72, 3-(chloromethylene)-2,3-dihydro-1-benzoxepin-7-carbaldehyde] | ≥ 70% | – | –

From patent US7071340B2, “Fungicidal 1-benzoxepin derivatives” (Bayer Cropscience S.A., priority 2001, dated 2006)
